Test results as given in patent US20260325533A1, “CDK INHIBITOR COMPOUNDS” (ALEKSIA THERAPEUTICS, INC., priority 2023, published 2026).
Read-outs that look alike come from different tables or passages of the source.

Experiments:
Assay type in all cases: biochemical
CDK1/CCNB1 = CDK1/CCNB1 (Homo sapiens, UniProt P06493); assay: CDK1 homogeneous time-resolved fluorescence (HTRF) kinase assay; conditions: CDK1/CCNB
Outline: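 Read-out: TR-FRET (Eu anti-phospho-4E-BP1 Thr37/46 antibody, 2 nM; 665 nm or 665/615 ratio) after 60 min phosphorylation of 50 nM ULight-peptide by 0.5 nM CDK1/CCNB1 at 1 mM ATP, 23 °C. Compound preincubated 20 min with enzyme; 1% DMSO.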

CDK2/CCNE1 = CDK2/CCNE1 (Homo sapiens, UniProt P24941); assay: CDK2 homogeneous time-resolved fluorescence (HTRF) kinase assay; conditions: CDK2/CCNE
Outline: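 Compounds were titrated 11-point, half-log from typically 10 μM against 3 nM CDK2/cyclin E1 at 1 mM ATP, with a 20 min enzyme preincubation. Phosphorylation of 50 nM ULight-4E-BP1 peptide over 60 min at 23 °C was detected by europium anti-phospho antibody TR-FRET.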

CDK6/CCND1 = CDK6/CCND1 (Homo sapiens, UniProt Q00534); assay: CDK6 homogeneous time-resolved fluorescence (HTRF) kinase assay; conditions: CDK6/CCND
Chain of CDK6/CCND1 (Q00534 whole entry): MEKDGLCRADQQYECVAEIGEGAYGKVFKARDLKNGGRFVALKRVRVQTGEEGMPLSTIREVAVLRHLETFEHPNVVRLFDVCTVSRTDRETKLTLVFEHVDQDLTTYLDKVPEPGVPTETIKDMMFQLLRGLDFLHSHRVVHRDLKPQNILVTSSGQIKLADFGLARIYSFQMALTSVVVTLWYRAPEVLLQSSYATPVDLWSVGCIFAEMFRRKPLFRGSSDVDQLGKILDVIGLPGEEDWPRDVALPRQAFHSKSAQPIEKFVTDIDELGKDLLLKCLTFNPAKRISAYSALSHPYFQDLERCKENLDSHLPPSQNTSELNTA
Chain of CDK6/CCND1 (P24385 whole entry partner): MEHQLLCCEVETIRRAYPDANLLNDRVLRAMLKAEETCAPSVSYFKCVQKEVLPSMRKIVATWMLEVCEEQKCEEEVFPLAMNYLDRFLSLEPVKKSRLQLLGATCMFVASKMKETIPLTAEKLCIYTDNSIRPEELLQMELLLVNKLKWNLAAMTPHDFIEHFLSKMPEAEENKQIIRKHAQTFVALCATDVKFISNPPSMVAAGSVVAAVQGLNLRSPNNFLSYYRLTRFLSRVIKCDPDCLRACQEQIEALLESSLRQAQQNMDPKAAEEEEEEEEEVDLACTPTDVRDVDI
Protocol: (§1) A CDK homogeneous time-resolved fluorescence (HTRF) assay was used to assess the potency of the compounds described herein.
(§2) To an untreated 384-well microtiter plate (ProxiPlate) was added 100 nL 100×test compound in DMSO and 5 μL 2×CDK enzyme in assay buffer (50 mM HEPES, 1 mM EGTA, 10 mM MgCl2, 0.01% Tween 20, 2 mM DTT). The plate was centrifuged at 800 RPM for 1 min then incubated for 20 min at 23 °C. 2.5 μL per well of 4×ATP and 2.5 μL 4×ULight™-eIF4E-binding protein 1 (Thr37/46) Peptide substrate were added to all wells. After addition, the plates were centrifuged at 800 RPM for 1 min. The plates were incubated at 23 °C for 60 min. 5 μL per well 4×EDTA solution were added to each well to stop the reaction. 5 μL 4×LANCE Ultra Europium-anti-phospho-eIF4E-binding protein 1 (Thr37/46) antibody were added to each well and the plate was centrifuged for 1 min at 800 RPM. The plate was incubated for 60 min at 23 °C. Fluorescence was read at 340 nm excitation and 665 nm emission on an EnVision 2105 fluorescence reader. The final concentrations of reagents in the activity assay were 1 nM CDK6/CCND1, 1 mM ATP, 50 nM ULight™-eIF4E-binding protein 1 (Thr37/46) Peptide substrate, 1% DMSO, 10 mM EDTA, and 2 nM LANCE Ultra Europium-anti-phospho-eIF4E-binding protein 1 (Thr37/46).
(§3) Dose-response titrations were conducted by using an 11-point, half-logarithmic serial dilution scheme typically starting at 10 μM. Signals were reported as fluorescence units at 665 nm or the ratio of fluorescence units at 665 nm/fluorescence units at 615 nm. Signals are referred to below as “Lance signals”.
(§4) Using this assay, the IC50 values of example compounds were determined. Table 3 illustrates the IC50 for various Example compounds of Formula IA. Table 4 illustrates the IC50 for various other Example compounds of Formula I. ND=not determined.

CDK4/CCND3 = CDK4/CCND3 (Homo sapiens, UniProt P11802); assay: CDK4 homogeneous time-resolved fluorescence (HTRF) kinase assay; conditions: CDK4/CCND
Chain of CDK4/CCND3 (P11802 whole entry): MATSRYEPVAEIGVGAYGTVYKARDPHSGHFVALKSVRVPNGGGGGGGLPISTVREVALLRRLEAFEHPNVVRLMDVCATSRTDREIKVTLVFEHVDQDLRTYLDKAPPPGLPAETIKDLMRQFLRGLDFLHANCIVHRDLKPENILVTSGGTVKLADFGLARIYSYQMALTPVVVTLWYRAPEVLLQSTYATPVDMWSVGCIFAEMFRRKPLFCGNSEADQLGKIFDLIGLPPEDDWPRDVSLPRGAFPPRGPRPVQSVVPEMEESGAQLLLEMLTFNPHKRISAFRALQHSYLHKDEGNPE
Chain of CDK4/CCND3 (P30281 whole entry partner): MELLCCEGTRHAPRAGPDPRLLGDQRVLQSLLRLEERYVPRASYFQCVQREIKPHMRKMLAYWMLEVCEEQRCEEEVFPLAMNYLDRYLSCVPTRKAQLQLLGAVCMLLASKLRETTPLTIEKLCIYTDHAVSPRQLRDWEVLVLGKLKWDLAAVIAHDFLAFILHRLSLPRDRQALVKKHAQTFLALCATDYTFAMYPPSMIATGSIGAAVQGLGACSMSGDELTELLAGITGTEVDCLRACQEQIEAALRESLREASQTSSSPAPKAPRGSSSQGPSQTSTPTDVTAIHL
Protocol: as §1
as §2, with “were 1.5” for “were 1”, “nM CDK4/CCND3,” for “nM CDK6/CCND1,”
as §3, §4

[1] = >250 nM marked x, read-out: CDK1/CCNB IC50 >250 nM
[2] = <25 nM, read-out: CDK2/CCNE IC50 <25 nM
[3] = 25-250 nM marked x, read-out: CDK6/CCND IC50 25-250 nM
[4] = 25-250 nM marked x, read-out: CDK4/CCND IC50 25-250 nM
[5] = 25-250 nM marked x, read-out: CDK1/CCNB IC50 25-250 nM
[6] = <25 nM, read-out: CDK6/CCND IC50 <25 nM
[7] = <25 nM, read-out: CDK4/CCND IC50 <25 nM
[8] = 25-250 nM marked x, read-out: CDK2/CCNE IC50 25-250 nM
[9] = >250 nM marked x, read-out: CDK6/CCND IC50 >250 nM
[10] = >250 nM marked x, read-out: CDK4/CCND IC50 >250 nM

Chain of CDK1/CCNB1 (P06493 whole entry): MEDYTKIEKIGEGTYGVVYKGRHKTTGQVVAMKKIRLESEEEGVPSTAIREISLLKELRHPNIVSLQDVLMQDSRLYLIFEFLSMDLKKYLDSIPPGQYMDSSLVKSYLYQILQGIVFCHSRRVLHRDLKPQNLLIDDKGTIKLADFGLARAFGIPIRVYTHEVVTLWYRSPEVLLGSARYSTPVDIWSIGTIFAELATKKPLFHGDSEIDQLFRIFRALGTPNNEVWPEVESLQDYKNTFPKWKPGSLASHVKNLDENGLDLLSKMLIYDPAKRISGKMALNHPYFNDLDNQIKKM
Chain of CDK1/CCNB1 (P14635 whole entry partner): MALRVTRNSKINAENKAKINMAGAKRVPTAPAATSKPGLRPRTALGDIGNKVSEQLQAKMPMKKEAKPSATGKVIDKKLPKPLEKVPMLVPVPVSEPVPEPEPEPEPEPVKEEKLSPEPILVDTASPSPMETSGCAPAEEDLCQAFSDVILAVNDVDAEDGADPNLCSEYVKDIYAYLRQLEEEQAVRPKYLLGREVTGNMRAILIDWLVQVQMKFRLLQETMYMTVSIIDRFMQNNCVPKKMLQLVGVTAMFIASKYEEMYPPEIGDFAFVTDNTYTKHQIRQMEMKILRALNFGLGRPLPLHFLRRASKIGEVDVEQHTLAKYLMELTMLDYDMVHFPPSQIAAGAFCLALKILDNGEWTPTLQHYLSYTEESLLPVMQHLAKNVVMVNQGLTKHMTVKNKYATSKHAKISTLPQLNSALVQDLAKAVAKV

Row | SMILES | IC50 (CDK1/CCNB1; [1]) [nM] | IC50 (CDK2/CCNE1; [2]) [nM] | IC50 (CDK6/CCND1; [3]) [nM] | IC50 (CDK4/CCND3; [4]) [nM] | IC50 (CDK1/CCNB1; [5]) [nM] | further results
1 | CS(=O)(=O)N1CCC(Nc2cc3c(N4CCC(O)C4)nccc3cn2)CC1 (racemic) [Ex 26, 1-(7-((1-(methylsulfonyl)piperidin-4-yl)amino)-2,6-naphthyridin-1-yl)pyrrolidin-3-ol] | > 250 | < 25 | 25 to 250 | 25 to 250 | – | –
2 | CC1CCCCN1c1nccc2cnc(NC3CCN(S(C)(=O)=O)CC3)cc12 (racemic) [Ex 34, 5-(2-methylpiperidin-1-yl)-N-(1-(methylsulfonyl)piperidin-4-yl)-2,6-naphthyridin-3-amine] | – | < 25 | – | – | 25 to 250 | IC50 (CDK6/CCND1; [6]): < 25 nM; IC50 (CDK4/CCND3; [7]): < 25 nM
3 | CS(=O)(=O)N1CCC(Nc2cc3c(N4CCCC(C#N)C4)nccc3cn2)CC1 (racemic) [Ex 39, 1-(7-((1-(methylsulfonyl)piperidin-4-yl)amino)-2,6-naphthyridin-1-yl)piperidine-3-carbonitrile] | – | < 25 | – | 25 to 250 | 25 to 250 | IC50 (CDK6/CCND1; [6]): < 25 nM
4 | CS(=O)(=O)N1CCC(Nc2cc3c(N4CCCC(CO)C4)nccc3cn2)CC1 (racemic) [Ex 40, (1-(7-((1-(methylsulfonyl)piperidin-4-yl)amino)-2,6-naphthyridin-1-yl)piperidin-3-yl)methanol] | – | < 25 | 25 to 250 | 25 to 250 | 25 to 250 | –
5 | CS(=O)(=O)N1CCC(Nc2cc3c(N4CCCC(O)C4)nccc3cn2)CC1 (racemic) [Ex 42, 1-(7-((1-(methylsulfonyl)piperidin-4-yl)amino)-2,6-naphthyridin-1-yl)piperidin-3-ol] | – | < 25 | 25 to 250 | 25 to 250 | 25 to 250 | –
6 | CS(=O)(=O)N1CCC(Nc2cc3c(N4CCC(C#N)C4)nccc3cn2)CC1 (racemic) [Ex 45, 1-(7-((1-(methylsulfonyl)piperidin-4-yl)amino)-2,6-naphthyridin-1-yl)pyrrolidine-3-carbonitrile] | > 250 | < 25 | 25 to 250 | 25 to 250 | – | –
7 | CN(C)C1CCCN(c2nccc3cnc(NC4CCN(S(C)(=O)=O)CC4)cc23)CC1 (racemic) [Ex 52, 5-(4-(dimethylamino)azepan-1-yl)-N-(1-(methylsulfonyl)piperidin-4-yl)-2,6-naphthyridin-3-amine] | > 250 | – | – | – | – | IC50 (CDK2/CCNE1; [8]): 25 to 250 nM; IC50 (CDK6/CCND1; [6]): < 25 nM; IC50 (CDK4/CCND3; [7]): < 25 nM
8 | O=C(NC1CCSC1=O)c1ccc(Nc2cc3c(C4=CCCCC4)nccc3cn2)cc1 (racemic) [Ex 114, 4-((5-(cyclohex-1-en-1-yl)-2,6-naphthyridin-3-yl)amino)-N-(2-oxotetrahydrothiophen-3-yl)benzamide] | – | < 25 | – | – | 25 to 250 | IC50 (CDK6/CCND1; [6]): < 25 nM; IC50 (CDK4/CCND3; [7]): < 25 nM
9 | CS(=O)(=O)c1ccc(Nc2cc3c(C4=CCC(O)CC4)nccc3cn2)cc1 (racemic) [Ex 120, 4-(7-((4-(methylsulfonyl)phenyl)amino)-2,6-naphthyridin-1-yl)cyclohex-3-en-1-ol] | > 250 | < 25 | 25 to 250 | 25 to 250 | – | –
10 | CS(=O)(=O)c1ccc(Nc2cc3c(C4=CCC(C#N)CC4)nccc3cn2)cc1 (racemic) [Ex 121, 4-(7-((4-(methylsulfonyl)phenyl)amino)-2,6-naphthyridin-1-yl)cyclohex-3-ene-1-carbonitrile] | > 250 | < 25 | 25 to 250 | 25 to 250 | – | –
11 | C=CS(=O)(=O)c1ccc(Nc2cc3c(N4CCC(C#N)C4)nccc3cn2)cc1 (racemic) [Ex 122, 1-(7-((4-(vinylsulfonyl)phenyl)amino)-2,6-naphthyridin-1-yl)pyrrolidine-3-carbonitrile] | > 250 | – | – | – | – | IC50 (CDK2/CCNE1; [8]): 25 to 250 nM; IC50 (CDK6/CCND1; [9]): > 250 nM; IC50 (CDK4/CCND3; [10]): > 250 nM
12 | CS(=O)(=O)c1ccc(Nc2cc3c(C#CC4CC(O)C4)nccc3cn2)cc1 (racemic) [Ex 147, 3-((7-((4-(methylsulfonyl)phenyl)amino)-2,6-naphthyridin-1-yl)ethynyl)cyclobutan-1-ol] | – | < 25 | 25 to 250 | 25 to 250 | 25 to 250 | –
13 | Cc1c(-c2nccc3cnc(Nc4ccc(S(C)(=O)=O)cc4)cc23)ccc2c1cnn2CC1CCNC1 (racemic) [Ex 193, 5-(4-methyl-1-(pyrrolidin-3-ylmethyl)-1H-indazol-5-yl)-N-(4-(methylsulfonyl)phenyl)-2,6-naphthyridin-3-amine] | > 250 | < 25 | 25 to 250 | 25 to 250 | – | –
14 | CS(=O)(=O)c1ccc(Nc2cc3c(C4CCC(O)CC4)nccc3cn2)cc1 (racemic) [Ex 215, 4-(7-((4-(methylsulfonyl)phenyl)amino)-2,6-naphthyridin-1-yl)cyclohexan-1-ol] | > 250 | – | – | – | – | IC50 (CDK2/CCNE1; [8]): 25 to 250 nM; IC50 (CDK6/CCND1; [9]): > 250 nM; IC50 (CDK4/CCND3; [10]): > 250 nM
15 | CCS(=N)(=O)c1ccc(Nc2cc3c(C#Cc4ccc5c(c4)NC(=O)C54CC4)nccc3cn2)c(OC)c1 (single isomer, unassigned) [Ex 290, 6'-((7-((4-(ethylsulfonimidoyl)-2-methoxyphenyl)amino)-2,6-naphthyridin-1-yl)ethynyl)spiro[cyclopropane-1,3'-indolin]-2'-one] | – | – | 25 to 250 | 25 to 250 | 25 to 250 | –
16 | CS(=O)(=O)N1CCC(Nc2cc3c(-c4ccc(C#N)nc4)nccc3cn2)CC1 [Ex 61, 5-(7-((1-(methylsulfonyl)piperidin-4-yl)amino)-2,6-naphthyridin-1-yl)picolinonitrile] | > 250 | – | 25 to 250 | 25 to 250 | – | –
17 | CCC1(CC)C(=O)Nc2cc(C#Cc3nccc4cnc(Nc5ccc(S(=O)(=O)C6CC6)cc5)cc34)ccc21 [Ex 408, 6-((7-((4-(cyclopropylsulfonyl)phenyl)amino)-2,6-naphthyridin-1-yl)ethynyl)-3,3-diethylindolin-2-one] | – | – | – | – | – | IC50 (CDK1/CCNB1; x = IC50 >250 nM, read-out: CDK1/CCNB IC50 (>250 nM column)): > 250 nM; IC50 (CDK6/CCND1; x = IC50 >250 nM, read-out: CDK6/CCND IC50 (>250 nM column)): > 250 nM; IC50 (CDK4/CCND3; x = IC50 >250 nM, read-out: CDK4/CCND IC50 (>250 nM column)): > 250 nM
